Results: patent US20130225830A1, “POLYMORPHS OF FEBUXOSTAT” (MAPI PHARMA LIMITED, priority 2010, published 2013)
≈ marks a conversion by molar mass, not a printed value. Where “and” joins values, the source holds several entries; their conditions need not be identical. Equal entries are not always repeated. Where two headings read alike, the source gives them in different places.

Experiments:
Type in all cases: physicochemical
[1] = Bulk and tapped density measurements
Procedure: Bulk density testing: A febuxostat form in an amount which is sufficient to complete the test was passed through a 1.0 mm (No. 18) screen to break up agglomerates that may have formed during storage. The febuxostat form was then weighed (M) and the powder was added into a 10 mL graduated cylinder. The powder was carefully leveled without compacting, and the unsettled apparent volume, Vo, was read. The bulk density, in g per mL, was calculated by the formula: Bulk Density=M/Vo Tapped density testing: A febuxostat form in an amount which is sufficient to complete the test was passed through a 1.0 mm (No. 18) screen to break up agglomerates that may have formed during storage. The febuxostat form was then weighed and the powder was added into a 10 mL graduated cylinder. The powder was carefully leveled without compacting. The cylinder was tapped 500 times initially and the tapped volume, Va, was measured to the nearest graduated unit. The tapping was then repeated for additional 750 times and the tapped volume, Vb, was measured to the nearest graduated unit. If the difference between the two volumes was less than 2%, Vb was taken as the final tapped volume, Vf. The tapped density, in g per mL, was calculated by the formula: Tapped Density=M/Vf

[2] = Physical stability measurements (XRPD, DSC, TGA)
Procedure: Testing conditions: 40° C., 60° C., 40° C./RH 75%, 60° C./RH 75%, light
Testing procedure: About 50 mg of a febuxostat form were weighed in glass vial for testing the physical stability and were stored under different conditions for 1 week and 2 weeks, separately. The same febuxostat form was stored at −20° C. as control. XRPD, DSC and TGA of each of the febuxostat forms were measured at the end of the first and second weeks.

[3] = Aqueous solubility measurements; conditions: for solubility at 24 h: thermodynamic from solid, read-out: HPLC solubility; for pH: final pH of saturated solution
Procedure: Testing media: water, pH 1.2, 4.5, 6.8, 7.4 USP buffers, 0.01 N HCl, 0.1 N HCl, SGF, FaSSIF, FeSSIF.
The various testing media were prepared as follows:
pH 1.2 (USP): 50 mL of 0.2 M potassium chloride solution were placed in a 200 mL volumetric flask to which 85.0 mL of 0.2M hydrochloric acid solution were added followed by the addition of water to obtain the required volume.
pH 4.5 (USP): 50 mL of 0.2 M potassium biphthalate solution were placed in a 200 mL volumetric flask to which 8.8 mL of 0.2 M sodium hydroxide solution were added followed by the addition of water to obtain the required volume.
pH 6.8 (USP): 50 mL of 0.2 M monobasic potassium phosphate solution were placed in a 200 mL volumetric flask to which 22.4 mL of 0.2 M sodium hydroxide solution were added followed by the addition of water to obtain the required volume.
pH 7.4 (USP): 50 mL of 0.2 M monobasic potassium phosphate solution were placed in a 200 mL volumetric flask to which 39.1 mL of 0.2 M sodium hydroxide solution were added followed by the addition of water to obtain the required volume.
Simulated gastric fluid (SGF): 0.01 N HCl, 0.05% sodium lauryl sulfate, and 0.2% NaCl.
Fasted state simulated intestinal fluid (FaSSIF): 29 mM NaH2PO4, 3 mM Na taurocholate, 0.75 mM lecithin, 103 mM NaCl, and NaOH to obtain pH 6.5.
Fed state simulated intestinal fluid (FeSSIF): 144 mM acetic acid, 15 mM Na taurocholate, 3.75 mM lecithin, 204 mM NaCl, and NaOH to obtain pH 5.0.
Testing procedure: The tested febuxostat form was placed in each of the different media and was kept shaken for 24 hours at 25° C. Then, the saturated solution was filtered. The concentration of the febuxostat form in filtrate was determined by HPLC. The final pH was then tested. The test was conducted in duplication.

[4] = Solid stability measurements (appearance, assay and total related substances by HPLC); conditions: for Remaining (%): one value for both samples, vs −20° C. control; for Appearance / TRS (%): samples 1 and 2
Procedure: The detailed chromatographic conditions are listed hereinbelow. The typical retention time of febuxostat main peak is 8.2 min. [table] Testing conditions: 40° C., 60° C., 40° C./RH 75%, 60° C./RH 75%, light Testing procedure: About 3 mg of a febuxostat form were weighed in a glass vial and stored under the different conditions for 1 week and 2 weeks, separately. The same febuxostat form was stored at −20° C. as control. The test was conducted in duplication. The physical appearance, assay and total related substances of each of the febuxostat forms were measured by HPLC at the end of the first and second weeks.

[5] = media 0.01N HCl, 24 hours at 25° C.
[6] = media 0.1N HCl, 24 hours at 25° C.
[7] = media FaSSIF, 24 hours at 25° C.
[8] = media FeSSIF, 24 hours at 25° C.
[9] = media pH 1.2 (USP), 24 hours at 25° C.
[10] = media pH 4.5 (USP), 24 hours at 25° C.
[11] = media pH 6.8 (USP), 24 hours at 25° C.
[12] = media pH 7.4 (USP), 24 hours at 25° C.

Cc1nc(-c2ccc(OCC(C)C)c(C#N)c2)sc1C(=O)O [Form V, 2-(3-cyano-4-isobutoxyphenyl)-4-methyl-5-thiazolecarboxylic acid]
Bulk Density [1]: 0.444 g/mL
Tapped Density [1]: 0.637 g/mL
bulk and tapped densities (in words) ([1]; compared among forms V, IX, XI and form G): adequate bulk and tapped densities
physical stability (XRPD, DSC, TGA) ([2]; 40° C., 60° C. and light at the end of the first and second week): stable
physical stability (XRPD, DSC, TGA), form conversion ([2]; 40° C./75% RH at the end of the first week): partially converted to form G
physical stability (XRPD, DSC, TGA), form conversion ([2]; 40° C./75% RH at the end of the second week): completely converted to form G
physical stability (XRPD, DSC, TGA), form conversion ([2]; 60° C./75% RH at the end of the first and second weeks): completely converted to form G
solubility at 24 h ([3]; USP buffer pH 6.8, 25 °C, pH 6.8, aqueous buffer, media pH 6.8 (USP), 24 hours at 25° C.): 1120 µg/mL (≈ 3550 µM)
pH [3, 5]: 2.003
pH [3, 6]: 0.951
pH [3, 7]: 6.384
pH [3, 8]: 4.995
pH ([3]; media SGF, 24 hours at 25° C.): 2.108
pH [3, 9]: 1.157
pH [3, 10]: 4.452
pH [3, 11]: 6.641
pH [3, 12]: 6.960
pH ([3]; media water, shaken 24 hours at 25° C.): 7.520
Visual solubility [3, 5]: few particles
Visual solubility [3, 6]: few particles
HPLC solubility [3, 7]: 513.37 µg/mL
Visual solubility [3, 7]: Turbid + few particles
HPLC solubility [3, 8]: 180.61 µg/mL
Visual solubility [3, 8]: Turbid + few particles
Visual solubility ([3]; media SGF, 24 hours at 25° C.): few particles
Visual solubility [3, 9]: few particles
HPLC solubility [3, 10]: 0.38 µg/mL
Visual solubility [3, 10]: Turbid + few particles
Visual solubility [3, 11]: Turbid + few particles
HPLC solubility [3, 12]: 4317.12 µg/mL
Visual solubility [3, 12]: Slightly turbid
Visual solubility ([3]; media water, 24 hours at 25° C.): Turbid + few particles
aqueous solubility (in words) ([3]; pH1.2 USP buffer, 0.01N HCl, 0.1N HCl and SGF): poor solubility
aqueous solubility (in words) ([3]; pH6.8 USP buffer, pH7.4 USP buffer, FaSSIF, FeSSIF): good solubility
solubility at 24 h ([3]; water, 25 °C, water, media water, 24 hours at 25° C.): 54.9 µg/mL (≈ 173 µM)
change of assay and TRS (in words) ([4]; 40° C., 60° C., 40° C./75% RH, 60° C./75% RH at end of the first and second weeks): no significant change
Remaining (%) ([4]; 40° C., 7 d): 100.62%
Appearance ([4]; 40° C., 7 d): No change
TRS (%) ([4]; 40° C., 7 d): 0.45%
Remaining (%) ([4]; 40° C., 14 d): 100.01%
Appearance ([4]; 40° C., 14 d): No change
TRS (%) ([4]; 40° C., 14 d): 0.46% and 0.47%
Remaining (%) ([4]; 40° C./75% RH, 7 d): 99.40%
Appearance ([4]; 40° C./75% RH, 7 d): No change
TRS (%) ([4]; 40° C./75% RH, 7 d): 0.47% and 0.48%
Remaining (%) ([4]; 40° C./75% RH, 14 d): 99.03%
Appearance ([4]; 40° C./75% RH, 14 d): No change
TRS (%) ([4]; 40° C./75% RH, 14 d): 0.50% and 0.52%
Remaining (%) ([4]; 60° C., 7 d): 100.65%
Appearance ([4]; 60° C., 7 d): No change
TRS (%) ([4]; 60° C., 7 d): 0.53% and 0.51%
Remaining (%) ([4]; 60° C., 14 d): 100.06%
Appearance ([4]; 60° C., 14 d): No change
TRS (%) ([4]; 60° C., 14 d): 0.54% and 0.53%
Remaining (%) ([4]; 60° C./75% RH, 7 d): 98.20%
Appearance ([4]; 60° C./75% RH, 7 d): No change
TRS (%) ([4]; 60° C./75% RH, 7 d): 0.51% and 0.52%
Remaining (%) ([4]; 60° C./75% RH, 14 d): 98.87%
Appearance ([4]; 60° C./75% RH, 14 d): No change
TRS (%) ([4]; 60° C./75% RH, 14 d): 0.52% and 0.53%
Remaining (%) ([4]; Light, 7 d): 97.74%
Appearance ([4]; Light, 7 d): Light yellow
TRS (%) ([4]; Light, 7 d): 1.02% and 1.18%
Remaining (%) ([4]; Light, 14 d): 94.06%
Appearance ([4]; Light, 14 d): Light yellow
TRS (%) ([4]; Light, 14 d): 5.99% and 5.08%
Appearance ([4]; −20° C. (control), 7 d): No change
TRS (%) ([4]; −20° C. (control), 7 d): 0.40% and 0.39%
Appearance ([4]; −20° C. (control), 14 d): No change
TRS (%) ([4]; −20° C. (control), 14 d): 0.42% and 0.41%
